Source: patent US20090270419A1, “COMBINATIONS OF CLASS-I SPECIFIC HISTONE DEACETYLASE INHIBITORS WITH PROTEASOME INHIBITORS” (priority 2006, published 2009)

Assays:
HL-60 = details: HL-60, acute promyelocytic leukemia; 72 hr, MTS
Procedure: (§1) Tumor cells were grown as cell suspension in the corresponding appropriate culture medium at 37° C. in a humidified 5% CO2 incubator. Mycoplasma-free tumor cells were seeded in 96-well flat-bottom microtitration plates and incubated at 37° C. for 24 hr in culture medium containing 10% FCS. […] Cells were then incubated for an additional 72 hr.

[1] = test system: acetylation of tubulin and induction of Hsp 70 in A2780 ovarian carcinoma cells; experiment: Acetylation of tubulin and induction of Hsp 70 (Western blot, HDAC 6 readout); type: cell-based, human; details: 24 h, 0-3000 nM tested
Procedure: Total cell lysates were prepared and analysed by SDS-PAGE. […] Hsp 70 protein was detected with an antibody from Stressgen (Cat. nr. SPA-810), followed by ECL detection. Appropriate dilutions of antibodies were incubated for either 1-2 h at room temperature or overnight at 4° C. In order to control for equal loading, blots were stripped and re-probed with mouse monoclonal anti-actin IgM (Ab-1, Oncogene Research Products). […] Protein-antibody complexes were then visualized by chemiluminescence (Pierce Chemical Co) or fluorescence (Odyssey) according to the manufacturer's instructions. The experiments were performed three times.

BV-173 = details: BV-173, chronic B cell leukemia; 72 hr, MTS
Procedure: as §1

K-562 = details: K-562, chronic myeloid leukemia; 72 hr, MTS
Procedure: as §1

MOLT-4 = details: MOLT-4, acute lymphoblastic leukemia; 72 hr, MTS
Procedure: as §1

CCRF-CEM = details: acute lymphoblastic leukemia, 72 hr, MTS
Procedure: as §1

SUP-B15 = details: SUP-B15, acute lymphoblastic leukemia; 72 hr, MTS
Procedure: as §1

RPMI 8226 = details: RPMI 8226, myeloma; 72 hr, MTS
Procedure: as §1

KG-1 = details: KG-1, acute myelogenous leukemia; 72 hr, MTS
Procedure: as §1

ARH-77 = details: ARH-77, myeloma; 72 hr, MTS
Procedure: as §1

OCI-AML2 = details: OCI-AML2, acute myeloid leukemia; 72 hr, MTS
Procedure: as §1

LAMA-84 = details: LAMA-84, chronic myeloid leukemia in blast crisis; 72 hr, MTS
Procedure: as §1

Daudi = details: Burkitt's lymphoma, 72 hr, MTS
Procedure: as §1

Raji = details: Burkitt's lymphoma, 72 hr, MTS
Procedure: as §1

EHEB = details: chronic B cell leukemia, 72 hr, MTS
Procedure: as §1

[2] = test system: acetylation of histone H3 and H4 and induction of p21waf1,cip1 in A2780 ovarian carcinoma cells; experiment: Acetylation of cellular HDAC 1 substrates and induction of p21waf1,cip1 (Western blot); type: cell-based, human; details: 24 h, 0-3000 nM tested
Procedure: Total cell lysates were prepared and analysed by SDS-PAGE. Levels of acetylated H3 and H4 histones, total level of H3 proteins and levels p21^waf1, cip1 protein were detected using appropriate dilutions of rabbit polyclonal and mouse monoclonal antibodies, followed by enhanced chemoluminescence (ECL) detection. […] Antibodies were incubated for either 1-2 h at room temperature or overnight at 4° C. […] Protein-antibody complexes were then visualized by chemiluminescence (Pierce Chemical Co) or fluorescence (Odyssey) according to the manufacturer's instructions. The experiments were performed three times.

Ramos = details: Burkitt's lymphoma, 72 hr, MTS
Procedure: as §1

U-937 = details: U-937, lymphoma; 72 hr, MTS
Procedure: as §1

THP-1 = details: THP-1, acute monocytic leukemia; 72 hr, MTS
Procedure: as §1

Jurkat clone E6-1 = details: Jurkat clone E6-1, acute lymphoblastic leukemia; 72 hr, MTS
Procedure: as §1

Namalwa = details: Burkitt's lymphoma, 72 hr, MTS
Procedure: as §1

KCL-22 = details: KCL-22, chronic myeloid leukemia; 72 hr, MTS
Procedure: as §1

[3] = test system: p21waf1,cip1 deficient cells as compared to the parental HCT-116 cells; details: p21waf1,cip1 deficient cells vs parental HCT-116 cells; cited from earlier work

Question: For `O=C(NO)c1cnc(N2CCN(S(=O)(=O)c3ccc4ccccc4c3)CC2)nc1` [R306465], which “mean IC40 (concentration required to reach 40% inhibition of cell proliferation)” value (HL-60) is on record?
Answer: 0.08676 µM

Question: What about the “concentration when start of induction of acetylation of tubulin and induction of Hsp 70 is observed” value (“concentration when start” below) [1] of the same compound?
Answer: 1000 nM

Question: And the “mean IC40 (concentration required to reach 40% inhibition of cell proliferation)” value (BV-173)?
Answer: 0.02633 µM

Question: What about the “mean IC40 (concentration required to reach 40% inhibition of cell proliferation)” value (K-562) of the same compound?
Answer: 0.08076 µM

Question: And the “mean IC40 (concentration required to reach 40% inhibition of cell proliferation)” value (MOLT-4)?
Answer: 0.15583 µM

Question: And the “mean IC40 (concentration required to reach 40% inhibition of cell proliferation)” value (CCRF-CEM)?
Answer: 0.07879 µM

Question: And the “mean IC40 (concentration required to reach 40% inhibition of cell proliferation)” value (SUP-B15)?
Answer: 0.01567 µM

Question: And the “mean IC40 (concentration required to reach 40% inhibition of cell proliferation)” value (RPMI 8226)?
Answer: 0.03759 µM

Question: And the “mean IC40 (concentration required to reach 40% inhibition of cell proliferation)” value (KG-1)?
Answer: 0.17059 µM

Question: And the “mean IC40 (concentration required to reach 40% inhibition of cell proliferation)” value (ARH-77)?
Answer: 0.20727 µM

Question: And the “mean IC40 (concentration required to reach 40% inhibition of cell proliferation)” value (OCI-AML2)?
Answer: 0.26792 µM

Question: And the “mean IC40 (concentration required to reach 40% inhibition of cell proliferation)” value (LAMA-84)?
Answer: 0.16589 µM

Question: And the “mean IC40 (concentration required to reach 40% inhibition of cell proliferation)” value (Daudi)?
Answer: 0.45411 µM

Question: What about the “mean IC40 (concentration required to reach 40% inhibition of cell proliferation)” value (Raji) of the same compound?
Answer: 0.22109 µM

Question: And the “mean IC40 (concentration required to reach 40% inhibition of cell proliferation)” value (EHEB)?
Answer: 0.48662 µM

Question: And the “concentration when induction of acetylation of histone H3 and H4 and induction of p21waf1,cip1 is observed” value (from here on “concentration when induction”) [2]?
Answer: 100 nM

Question: And the “mean IC40 (concentration required to reach 40% inhibition of cell proliferation)” value (Ramos)?
Answer: 0.06608 µM

Question: What about the “mean IC40 (concentration required to reach 40% inhibition of cell proliferation)” value (U-937) of the same compound?
Answer: 0.15468 µM

Question: And the “mean IC40 (concentration required to reach 40% inhibition of cell proliferation)” value (THP-1)?
Answer: 0.44629 µM

Question: What about the “mean IC40 (concentration required to reach 40% inhibition of cell proliferation)” value (Jurkat clone E6-1) of the same compound?
Answer: 0.05619 µM

Question: What about the “mean IC40 (concentration required to reach 40% inhibition of cell proliferation)” value (Namalwa) of the same compound?
Answer: 0.04925 µM

Question: And the “mean IC40 (concentration required to reach 40% inhibition of cell proliferation)” value (KCL-22)?
Answer: 0.08988 µM

Question: Which “concentration when start” value [1] does the source give for `Cn1cc(CNCC2CCN(c3ncc(C(=O)NO)cn3)CC2)c2ccccc21` [JNJ 26481585] here?
Answer: 30 nM

Question: What about the “concentration when induction” value [2] of the same compound?
Answer: 10 nM

Question: For `O=C(CCCCCCC(=O)Nc1ccccc1)NO` [SAHA, suberoylanilide hydroxamic acid], which “concentration when start” value [1] is on record?
Answer: 100 nM

Question: And the “concentration when induction” value [2]?
Answer: 3000 nM

Question: With `CC(/C=C/C(=O)NO)=C\[C@@H](C)C(=O)c1ccc(N(C)C)cc1` [trichostatin A] as the compound, how does the “increase in resistance to the HDAC inhibitor” value [3] read?
Answer: 6 fold
